Reference: patent publication US20230399341A1, “7-PHENYL SUBSTITUTED 2-AMINOQUINAZOLINE INHIBITORS OF HPK1” (MERCK SHARP & DOHME LLC, priority 2020, published 2023)

Biological target: T1, Human HPK1, catalytic domain (Homo sapiens, UniProt Q92918)
T1 sequence (Q92918 1-346): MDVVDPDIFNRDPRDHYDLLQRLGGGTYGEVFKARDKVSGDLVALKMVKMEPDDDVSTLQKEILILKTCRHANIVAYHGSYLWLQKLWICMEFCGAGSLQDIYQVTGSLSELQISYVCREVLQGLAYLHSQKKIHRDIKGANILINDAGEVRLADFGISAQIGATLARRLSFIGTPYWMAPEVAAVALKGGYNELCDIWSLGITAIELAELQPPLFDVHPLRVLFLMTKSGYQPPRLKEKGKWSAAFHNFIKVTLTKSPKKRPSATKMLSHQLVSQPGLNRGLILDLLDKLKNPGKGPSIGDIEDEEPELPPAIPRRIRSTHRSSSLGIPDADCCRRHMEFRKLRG
Test: HPK1-SLP76 TR-FRET Assay
Format: biochemical
Conditions: 75 pM HPK1, ATP 10 uM, SLP76 10 nM, 30 min pre-incubation, 60 min reaction

| IC50 | Structure (SMILES) |
| --- | --- |
| 0.515 nM | Cc1c(-c2cc3nc(Nc4ccc5c(c4)CN(C)CC5(F)F)ncc3c(N)c2F)cnc2c1NCCO2 [Compound 2-154, N~2~-(4,4-difluoro-2-methyl-1,2,3,4-tetrahydroisoquinolin-7-yl)-6-fluoro-7-(8-methyl-2,3-dihydro-1H-pyrido[2,3-b][1,4]oxazin-7-yl)quinazoline-2,5-diamine] |
| 0.0647 nM | Cc1c(-c2cc3nc(Nc4ccc(CS(C)(=O)=O)cc4F)ncc3c(N)c2F)cnc2c1NCCO2 [Compound 2-155, 6-fluoro-N~2~-{2-fluoro-4-[(methylsulfonyl)methyl]phenyl}-7-(8-methyl-2,3-dihydro-1H-pyrido[2,3-b][1,4]oxazin-7-yl)quinazoline-2,5-diamine] |
| 0.0689 nM | Cc1c(-c2cc3nc(Nc4ccc(CS(=O)(=O)C(C)C)cc4)ncc3c(N)c2F)cnc2c1NCCO2 [Compound 2-157, 6-fluoro-7-(8-methyl-2,3-dihydro-1H-pyrido[2,3-b][1,4]oxazin-7-yl)-N~2~- (4-{[(propan-2-yl)sulfonyl]methyl}phenyl) quinazoline-2,5-diamine] |
| 0.0251 nM | Cc1c(-c2cc3nc(Nc4ccc5c(c4)CCN(C)C5)ncc3c(N)c2F)cnc2c1NCCO2 [Compound 2-158, 6-fluoro-7-(8-methyl-2,3-dihydro-1H-pyrido[2,3-b][1,4]oxazin-7-yl)-N~2~- (2-methyl-1,2,3,4-tetrahydroisoquinolin-6-yl)quinazoline-2,5-diamine] |
| 47 nM | Cc1c(-c2c(F)c(N)c3cnc(Nc4ccc(N5CCOC5=O)cc4)nc3c2Cl)cnc2c1NCCO2 [Compound 2-159] |
| 0.0326 nM | CN1CCc2ccc(Nc3ncc4c(N)c(F)c(-c5cnc6c(c5Cl)NCCO6)cc4n3)cc2C1 [Compound 2-160, 7-(8-chloro-2,3-dihydro-1H-pyrido[2,3-b][1,4]oxazin-7-yl)-6-fluoro-N~2~-(2-methyl-1,2,3,4-tetrahydroisoquinolin-7-yl)quinazoline-2,5-diamine] |
| 0.252 nM | Cc1c(-c2c(F)c(N)c3cnc(Nc4ccc(CS(C)(=O)=O)cc4)nc3c2Cl)cnc2c1NCC(C)(C)O2 [Compound 2-161, (+ and −)-8-chloro-6-fluoro-N~2~-{4-[(methylsulfonyl)methyl]phenyl}-7-(3,3,8-trimethyl-2,3-dihydro-1H-pyrido[2,3-b][1,4]oxazin-7-yl)quinazoline-2,5-diamine] |
| 0.126 nM | Cc1c(-c2cc3nc(Nc4ccc5c(c4)CN(C)CC5)ncc3c(N)c2F)cnc2nc[nH]c12 [Compound 2-162, 6-fluoro-7-(7-methyl-1H-imidazo[4,5-b]pyridin-6-yl)-N~2~-(2-methyl-1,2,3,4-tetrahydroisoquinolin-7-yl)quinazoline-2,5-diamine] |
| 0.487 nM | Cc1c(-c2c(F)c(N)c3cnc(Nc4ccc(CC(C)(C)O)cc4)nc3c2Cl)cnc2c1NCCO2 [Compound 2-164, 1-(4-{[5-amino-8-chloro-6-fluoro-7-(8-methyl-2,3-dihydro-1H-pyrido[2,3-b][1,4]oxazin-7-yl)quinazolin-2-yl]amino}phenyl)-2-methylpropan-2-ol] |
| 0.103 nM | Cc1c(-c2cc3nc(Nc4ccc(CS(C)(=O)=O)cc4)ncc3c(N)c2F)cnc2c1NCC(C)(C)O2 [Compound 2-165, 6-fluoro-N~2~-{4-[(methylsulfonyl)methyl]phenyl}-7-(3,3,8-trimethyl-2,3-dihydro-1H-pyrido[2,3-b][1,4]oxazin-7-yl)quinazoline-2,5-diamine] |
| 0.0589 nM | Cc1c(-c2cc3nc(Nc4ccc5c(c4)CN(C)CC5)ncc3c(N)c2F)cnc2c1NCC(C)(C)O2 [Compound 2-166, 6-fluoro-N~2~-(2-methyl-1,2,3,4-tetrahydroisoquinolin-7-yl)-7-(3,3,8-trimethyl-2,3-dihydro-1H-pyrido[2,3-b][1,4]oxazin-7-yl)quinazoline-2,5-diamine] |
| 70.5 nM | Cc1c(-c2c(F)c(N)c3cnc(Nc4ccc(CC(C)(C)O)cc4)nc3c2Cl)cnc2c1NCCO2 [Compound 2-167, 1-(4-{[5-amino-8-chloro-6-fluoro-7-(8-methyl-2,3-dihydro-1H-pyrido[2,3-b][1,4]oxazin-7-yl)quinazolin-2-yl]amino}phenyl)-2-methylpropan-2-ol] |
| 0.104 nM | COc1cc(CS(=O)(=O)C(C)C)ccc1Nc1ncc2c(N)c(F)c(-c3cnc4c(c3C)NCCO4)cc2n1 [Compound 2-168, 6-fluoro-N~2~-(2-methoxy-4-{[(propan-2-yl)sulfonyl]methyl}phenyl)-7-(8-methyl-2,3-dihydro-1H-pyrido[2,3-b][1,4]oxazin-7-yl)quinazoline-2,5-diamine] |
| 4.97 nM | COc1cc2c(cc1Nc1ncc3c(N)c(F)c(-c4cnc5c(c4C)NCCO5)c(Cl)c3n1)CN(C)CC21CC1 [Compound 2-169, 8-chloro-6-fluoro-N~2~- (6′-methoxy-2′-methyl-2′,3′-dihydro-1′H-spiro[cyclopropane-1,4′-isoquinolin]-7′-yl)-7-(8-methyl-2,3-dihydro-1H-pyrido[2,3-b][1,4]oxazin-7-yl)quinazoline-2,5-diamine] |
| 0.0392 nM | Cc1c(-c2cc3nc(Nc4ccc([S+](C)[O-])cc4)ncc3c(N)c2F)cnc2c1NCCO2 (stereo not drawn) [Compound 2-170, 6-fluoro-7-(8-methyl-2,3-dihydro-1H-pyrido[2,3-b][1,4]oxazin-7-yl)-N~2~- [4-(methylsulfinyl)phenyl] quinazoline-2,5-diamine] |
| 0.0507 nM | Cc1c(-c2cc3nc(Nc4cc5c(cc4F)CCN(C(C)C)C5)ncc3c(N)c2F)cnc2c1NCCO2 [Compound 2-171, 6-fluoro-N~2~-[6-fluoro-2-(propan-2-yl)-1,2,3,4-tetrahydroisoquinolin-7-yl]-7-(8-methyl-2,3-dihydro-1H-pyrido[2,3-b][1,4]oxazin-7-yl)quinazoline-2,5-diamine] |
| 24.6 nM | Cc1ccc(F)cc1-c1cc2nc(Nc3ccc(CS(C)(=O)=O)cc3)ncc2c(N)c1F [Compound 2-172, 6-fluoro-7-(5-fluoro-2-methylphenyl)-N~2~-{4-[(methylsulfonyl)methyl]phenyl}quinazoline-2,5-diamine] |
| 0.128 nM | CCc1ccc(Nc2ncc3c(N)c(F)c(-c4cnc5c(c4C)NCCO5)cc3n2)cn1 [Compound 2-173, N~2~-(6-ethylpyridin-3-yl)-6-fluoro-7-(8-methyl-2,3-dihydro-1H-pyrido[2,3-b][1,4]oxazin-7-yl)quinazoline-2,5-diamine] |
| 11.4 nM | Cc1ccc(F)cc1-c1cc2nc(Nc3ccc4c(c3)CN(C)CC4)ncc2c(N)c1F [Compound 2-174, 6-fluoro-7-(5-fluoro-2-methylphenyl)-N~2~-(2-methyl-1,2,3,4-tetrahydroisoquinolin-7-yl)quinazoline-2,5-diamine] |
| 0.0298 nM | Cc1c(-c2cc3nc(Nc4cnc5c(c4)CN(C(C)C)CC5)ncc3c(N)c2F)cnc2c1NCCO2 [Compound 2-175, 6-fluoro-7-(8-methyl-2,3-dihydro-1H-pyrido[2,3-b][1,4]oxazin-7-yl)-N~2~- [6-(propan-2-yl)-5,6,7,8-tetrahydro-1,6-naphthyridin-3-yl]quinazoline-2,5-diamine] |
| 17.2 nM | COc1cc(C2CC2)ccc1Nc1ncc2c(N)c(F)c(-c3cnc4c(c3C)NCCO4)cc2n1 [Compound 2-176, N~2~-(4-cyclopropyl-2-methoxyphenyl)-6-fluoro-7-(8-methyl-2,3-dihydro-1H-pyrido[2,3-b][1,4]oxazin-7-yl)quinazoline-2,5-diamine] |
| 4.08 nM | COc1cc(C)ccc1Nc1ncc2c(N)c(F)c(-c3cnc4c(c3C)NCCO4)cc2n1 [Compound 2-177, 6-fluoro-N~2~-(2-methoxy-4-methylphenyl)-7-(8-methyl-2,3-dihydro-1H-pyrido[2,3-b][1,4]oxazin-7-yl)quinazoline-2,5-diamine] |
| 0.0933 nM | Cc1c(-c2cc3nc(Nc4ccc(CC(C)(C)O)cc4)ncc3c(N)c2F)cnc2c1NCCO2 [Compound 2-178, 1-(4-{[5-amino-6-fluoro-7-(8-methyl-2,3-dihydro-1H-pyrido[2,3-b][1,4]oxazin-7-yl)quinazolin-2-yl]amino}phenyl)-2-methylpropan-2-ol] |
| 100 nM | COc1nc(C2(C#N)CC2)ccc1Nc1ncc2c(N)c(F)c(-c3cnc4c(c3C)NCCO4)c(Cl)c2n1 [Compound 2-181, (+ or −)-1-(5-{[5-amino-8-chloro-6-fluoro-7-(8-methyl-2,3-dihydro-1H-pyrido[2,3-b][1,4]oxazin-7-yl)quinazolin-2-ylamino}-6-methoxypyridin-2-yl)cyclopropane-1-carbonitrile] |
| 32.7 nM | COc1nc(C2(C#N)CC2)ccc1Nc1ncc2c(N)c(F)c(-c3cnc4c(c3C)NCCO4)c(Cl)c2n1 [Compound 2-182, (+ or −)-1-(5-{[5-amino-8-chloro-6-fluoro-7-(8-methyl-2,3-dihydro-1H-pyrido[2,3-b][1,4]oxazin-7-yl)quinazolin-2-yl]amino}-6-methoxypyridin-2-yl)cyclopropane-1-carbonitrile] |
| 0.0379 nM | Cc1c(-c2cc3nc(Nc4cnc5c(c4)CN(C)CC5)ncc3c(N)c2F)cnc2c1NCCO2 [Compound 2-183, 6-fluoro-7-(8-methyl-2,3-dihydro-1H-pyrido[2,3-b][1,4]oxazin-7-yl)-N~2~- (6-methyl-5,6,7,8-tetrahydro-1,6-naphthyridin-3-yl)quinazoline-2,5-diamine] |
| 3.67 nM | Cc1c(-c2c(F)c(N)c3cnc(Nc4cc5c(cc4F)CCN(C)C5)nc3c2Cl)cnc2c1NCCO2 [Compound 2-184, (+ and −)-8-chloro-6-fluoro-N~2~-(6-fluoro-2-methyl-1,2,3,4-tetrahydroisoquinolin-7-yl)-7-(8-methyl-2,3-dihydro-1H-pyrido[2,3-b][1,4]oxazin-7-yl)quinazoline-2,5-diamine] |
